Reference: ChEMBL document CHEMBL1150788, “In vitro susceptibility of Sporothrix schenckii to six antifungal agents determined using three different methods” (2007)
Converted amounts (≈) assume the structure as drawn.

Legend:
Assay type in all cases: functional
Sporothrix schenckii [1] = experiment: Antifungal activity against Sporothrix schenckii P0019 isolate from cutaneous-lymphatic sporotrichosis patient after 72 hrs by Sensititre YeastOne method
Sporothrix schenckii [2] = experiment: Antifungal activity against Sporothrix schenckii SSA29 isolate from cutaneous-lymphatic sporotrichosis patient after 72 hrs by Sensititre YeastOne method
Sporothrix schenckii [3] = experiment: Antifungal activity against Sporothrix schenckii P20825 isolate from cutaneous-lymphatic sporotrichosis patient after 72 hrs by ATB Fungus 2 method
Sporothrix schenckii [4] = experiment: Antifungal activity against Sporothrix schenckii P30019 isolate from cutaneous-lymphatic sporotrichosis patient after 72 hrs by Sensititre YeastOne method
Candida parapsilosis [5] = experiment: Antifungal activity against Candida parapsilosis ATCC 22019 […] after 72 hrs by modified NCCLS M38-A method; conditions: Lodderomyces parapsilosis, ATCC 22019, 72 h
Candida parapsilosis [6] = experiment: Antifungal activity against Candida parapsilosis ATCC 22019 […] after 72 hrs by ATB Fungus 2 method; conditions: Lodderomyces parapsilosis, ATCC 22019, 72 h
Sporothrix schenckii [7] = experiment: Antifungal activity against Sporothrix schenckii P26187 isolate from cutaneous-lymphatic sporotrichosis patient after 72 hrs by Sensititre YeastOne method
Sporothrix schenckii [8] = experiment: Antifungal activity against Sporothrix schenckii PGAC0016 isolate from cutaneous-lymphatic sporotrichosis patient after 72 hrs by ATB Fungus 2 method
Sporothrix schenckii [9] = experiment: Antifungal activity against Sporothrix schenckii P14036 isolate from cutaneous-lymphatic sporotrichosis patient after 72 hrs by Sensititre YeastOne method
Sporothrix schenckii [10] = experiment: Antifungal activity against Sporothrix schenckii P1621 isolate from cutaneous-lymphatic sporotrichosis patient after 72 hrs by ATB Fungus 2 method
Sporothrix schenckii [11] = experiment: Antifungal activity against Sporothrix schenckii P24255 isolate from cutaneous-lymphatic sporotrichosis patient after 72 hrs by Sensititre YeastOne method
Sporothrix schenckii [12] = experiment: Antifungal activity against Sporothrix schenckii isolate from cutaneous-lymphatic sporotrichosis patient after 72 hrs by ATB Fungus 2 method
Sporothrix schenckii [13] = experiment: Antifungal activity against Sporothrix schenckii P20825 isolate from cutaneous-lymphatic sporotrichosis patient after 72 hrs by Sensititre YeastOne method
Sporothrix schenckii [14] = experiment: Antifungal activity against Sporothrix schenckii P30915 isolate from cutaneous-lymphatic sporotrichosis patient after 72 hrs by ATB Fungus 2 method
Sporothrix schenckii [15] = experiment: Antifungal activity against Sporothrix schenckii P30915 isolate from cutaneous-lymphatic sporotrichosis patient after 72 hrs by Sensititre YeastOne method
Sporothrix schenckii [16] = experiment: Antifungal activity against Sporothrix schenckii isolate from cutaneous-lymphatic sporotrichosis patient after 72 hrs by Sensititre YeastOne method
Sporothrix schenckii [17] = experiment: Antifungal activity against Sporothrix schenckii P3287 isolate from cutaneous-lymphatic sporotrichosis patient after 72 hrs by Sensititre YeastOne method
Sporothrix schenckii [18] = experiment: Antifungal activity against Sporothrix schenckii P25013 isolate from cutaneous-lymphatic sporotrichosis patient after 72 hrs by Sensititre YeastOne method
Candida parapsilosis [19] = experiment: Antifungal activity against Candida parapsilosis ATCC 22019 […] after 72 hrs by Sensititre YeastOne method; conditions: Lodderomyces parapsilosis, ATCC 22019, 72 h
Sporothrix schenckii [20] = experiment: Antifungal activity against Sporothrix schenckii P0019 isolate from cutaneous-lymphatic sporotrichosis patient after 72 hrs by ATB Fungus 2 method
Sporothrix schenckii [21] = experiment: Antifungal activity against Sporothrix schenckii MRSS4 isolate from cutaneous-lymphatic sporotrichosis patient after 72 hrs by Sensititre YeastOne method
Pichia kudriavzevii [22] = experiment: Antifungal activity against Candida krusei ATCC 6258 […] after 72 hrs by modified NCCLS M38-A method; conditions: ATCC 6258, 72 h
Sporothrix schenckii [23] = experiment: Antifungal activity against Sporothrix schenckii P30019 isolate from cutaneous-lymphatic sporotrichosis patient after 72 hrs by modified NCCLS M38-A method
Sporothrix schenckii [24] = experiment: Antifungal activity against Sporothrix schenckii P24223 isolate from cutaneous-lymphatic sporotrichosis patient after 72 hrs by ATB Fungus 2 method
Sporothrix schenckii [25] = experiment: Antifungal activity against Sporothrix schenckii PSCC1 isolate from cutaneous-lymphatic sporotrichosis patient after 72 hrs by Sensititre YeastOne method
Pichia kudriavzevii [26] = experiment: Antifungal activity against Candida krusei ATCC 6258 […] after 72 hrs by ATB Fungus 2 method; conditions: ATCC 6258, 72 h
Sporothrix schenckii [27] = experiment: Antifungal activity against Sporothrix schenckii P26187 isolate from cutaneous-lymphatic sporotrichosis patient after 72 hrs by ATB Fungus 2 method
Sporothrix schenckii [28] = experiment: Antifungal activity against Sporothrix schenckii PGAC0016 isolate from cutaneous-lymphatic sporotrichosis patient after 72 hrs by Sensititre YeastOne method
Sporothrix schenckii [29] = experiment: Antifungal activity against Sporothrix schenckii MRSS4 isolate from cutaneous-lymphatic sporotrichosis patient after 72 hrs by ATB Fungus 2 method
Sporothrix schenckii [30] = experiment: Antifungal activity against Sporothrix schenckii P14954 isolate from cutaneous-lymphatic sporotrichosis patient after 72 hrs by ATB Fungus 2 method
Pichia kudriavzevii [31] = experiment: Antifungal activity against Candida krusei ATCC 6258 […] after 72 hrs by Sensititre YeastOne method; conditions: ATCC 6258, 72 h
Sporothrix schenckii [32] = experiment: Antifungal activity against Sporothrix schenckii SSA29 isolate from cutaneous-lymphatic sporotrichosis patient after 72 hrs by ATB Fungus 2 method
Sporothrix schenckii [33] = experiment: Antifungal activity against Sporothrix schenckii P14036 isolate from cutaneous-lymphatic sporotrichosis patient after 72 hrs by ATB Fungus 2 method
Sporothrix schenckii [34] = experiment: Antifungal activity against Sporothrix schenckii PJRC002 isolate from cutaneous-lymphatic sporotrichosis patient after 72 hrs by Sensititre YeastOne method
Sporothrix schenckii [35] = experiment: Antifungal activity against Sporothrix schenckii P3287 isolate from cutaneous-lymphatic sporotrichosis patient after 72 hrs by ATB Fungus 2 method
Sporothrix schenckii [36] = experiment: Antifungal activity against Sporothrix schenckii isolate from cutaneous-lymphatic sporotrichosis patient after 72 hrs by modified NCCLS M38-A method
Sporothrix schenckii [37] = experiment: Antifungal activity against Sporothrix schenckii P14954 isolate from cutaneous-lymphatic sporotrichosis patient after 72 hrs by Sensititre YeastOne method
Sporothrix schenckii [38] = experiment: Antifungal activity against Sporothrix schenckii P30019 isolate from cutaneous-lymphatic sporotrichosis patient after 72 hrs by ATB Fungus 2 method
Sporothrix schenckii [39] = experiment: Antifungal activity against Sporothrix schenckii P24223 isolate from cutaneous-lymphatic sporotrichosis patient after 72 hrs by Sensititre YeastOne method
Sporothrix schenckii [40] = experiment: Antifungal activity against Sporothrix schenckii PSSA81 isolate from cutaneous-lymphatic sporotrichosis patient after 72 hrs by Sensititre YeastOne method
Sporothrix schenckii [41] = experiment: Antifungal activity against Sporothrix schenckii P24255 isolate from cutaneous-lymphatic sporotrichosis patient after 72 hrs by ATB Fungus 2 method
Sporothrix schenckii [42] = experiment: Antifungal activity against Sporothrix schenckii PSCC1 isolate from cutaneous-lymphatic sporotrichosis patient after 72 hrs by ATB Fungus 2 method
Sporothrix schenckii [43] = experiment: Antifungal activity against Sporothrix schenckii P10012 isolate from cutaneous-lymphatic sporotrichosis patient after 72 hrs by Sensititre YeastOne method
Sporothrix schenckii [44] = experiment: Antifungal activity against Sporothrix schenckii P1621 isolate from cutaneous-lymphatic sporotrichosis patient after 72 hrs by Sensititre YeastOne method
Sporothrix schenckii [45] = experiment: Antifungal activity against Sporothrix schenckii PJRC002 isolate from cutaneous-lymphatic sporotrichosis patient after 72 hrs by ATB Fungus 2 method
Sporothrix schenckii [46] = experiment: Antifungal activity against Sporothrix schenckii P10012 isolate from cutaneous-lymphatic sporotrichosis patient after 72 hrs by ATB Fungus 2 method
Sporothrix schenckii [47] = experiment: Antifungal activity against Sporothrix schenckii P25013 isolate from cutaneous-lymphatic sporotrichosis patient after 72 hrs by ATB Fungus 2 method

Nc1nc(=O)[nH]cc1F [FLUCYTOSINE]
MIC (Sporothrix schenckii [1]): 16 µg/mL (≈ 124 µM) | MIC (Sporothrix schenckii [2]): 16 µg/mL (≈ 124 µM) | MIC (Sporothrix schenckii [3]): 32 µg/mL (≈ 248 µM) | MIC (Sporothrix schenckii [4]): 1 µg/mL (≈ 7.75 µM) | MIC (Candida parapsilosis [5]): 0.5 µg/mL (≈ 3.87 µM) | MIC (Candida parapsilosis [6]): 1 µg/mL (≈ 7.75 µM) | MIC (Sporothrix schenckii [7]): 8 µg/mL (≈ 62 µM) | MIC (Sporothrix schenckii [8]): > 64 µg/mL | MIC (Sporothrix schenckii [9]): 32 µg/mL (≈ 248 µM) | MIC (Sporothrix schenckii [10]): 8 µg/mL (≈ 62 µM) | MIC (Sporothrix schenckii [11]): 16 µg/mL (≈ 124 µM) | MIC50 (Sporothrix schenckii [12]): 64 µg/mL (≈ 496 µM) | MIC90 (Sporothrix schenckii [12]): > 64 µg/mL | MIC (Sporothrix schenckii [13]): 8 µg/mL (≈ 62 µM) | MIC (Sporothrix schenckii [14]): > 64 µg/mL | MIC (Sporothrix schenckii [15]): 16 µg/mL (≈ 124 µM) | MIC50 (Sporothrix schenckii [16]): 16 µg/mL (≈ 124 µM) | MIC90 (Sporothrix schenckii [16]): 32 µg/mL (≈ 248 µM) | MIC (Sporothrix schenckii [17]): 16 µg/mL (≈ 124 µM) | MIC (Sporothrix schenckii [18]): 32 µg/mL (≈ 248 µM) | MIC (Candida parapsilosis [19]): 1 µg/mL (≈ 7.75 µM) | MIC (Sporothrix schenckii [20]): > 64 µg/mL | MIC (Sporothrix schenckii [21]): 16 µg/mL (≈ 124 µM) | MIC (Pichia kudriavzevii [22]): 16 µg/mL (≈ 124 µM) | MIC (Sporothrix schenckii [23]): 4 µg/mL (≈ 31 µM) | MIC (Sporothrix schenckii [24]): > 64 µg/mL | MIC (Sporothrix schenckii [25]): > 64 µg/mL | MIC (Pichia kudriavzevii [26]): 32 µg/mL (≈ 248 µM) | MIC (Sporothrix schenckii [27]): 64 µg/mL (≈ 496 µM) | MIC (Sporothrix schenckii [28]): 16 µg/mL (≈ 124 µM) | MIC (Sporothrix schenckii [29]): > 64 µg/mL | MIC (Sporothrix schenckii [30]): > 64 µg/mL | MIC (Pichia kudriavzevii [31]): 32 µg/mL (≈ 248 µM) | MIC (Sporothrix schenckii [32]): 32 µg/mL (≈ 248 µM) | MIC (Sporothrix schenckii [33]): 64 µg/mL (≈ 496 µM) | MIC (Sporothrix schenckii [34]): 8 µg/mL (≈ 62 µM) | MIC (Sporothrix schenckii [35]): > 64 µg/mL | MIC50 (Sporothrix schenckii [36]): > 64 µg/mL | MIC (Sporothrix schenckii [37]): 32 µg/mL (≈ 248 µM) | MIC (Sporothrix schenckii [38]): 64 µg/mL (≈ 496 µM) | MIC (Sporothrix schenckii [39]): 16 µg/mL (≈ 124 µM) | MIC (Sporothrix schenckii [40]): 1 µg/mL (≈ 7.75 µM) | MIC (Sporothrix schenckii [41]): 64 µg/mL (≈ 496 µM) | MIC (Sporothrix schenckii [42]): > 64 µg/mL | MIC (Sporothrix schenckii [43]): 8 µg/mL (≈ 62 µM) | MIC (Sporothrix schenckii [44]): 8 µg/mL (≈ 62 µM) | MIC (Sporothrix schenckii [45]): 64 µg/mL (≈ 496 µM) | MIC (Sporothrix schenckii [46]): 64 µg/mL (≈ 496 µM) | MIC (Sporothrix schenckii [47]): 64 µg/mL (≈ 496 µM)
